Source: PMC2582240, “Enhanced A3 adenosine receptor selectivity of multivalent nucleoside-dendrimer conjugates” (Journal of Nanobiotechnology, 2008)

Key:
A3 AR [1] = target: T1, A3 AR (Homo sapiens, UniProt P0DMS8); assay: Radioligand binding at A3 AR ([125I]AB-MECA, CHO cell membranes)
T1 construct: expressed in transfected cells; host or cells: CHO cells, stably transfected
T1 sequence (P0DMS8 1-318): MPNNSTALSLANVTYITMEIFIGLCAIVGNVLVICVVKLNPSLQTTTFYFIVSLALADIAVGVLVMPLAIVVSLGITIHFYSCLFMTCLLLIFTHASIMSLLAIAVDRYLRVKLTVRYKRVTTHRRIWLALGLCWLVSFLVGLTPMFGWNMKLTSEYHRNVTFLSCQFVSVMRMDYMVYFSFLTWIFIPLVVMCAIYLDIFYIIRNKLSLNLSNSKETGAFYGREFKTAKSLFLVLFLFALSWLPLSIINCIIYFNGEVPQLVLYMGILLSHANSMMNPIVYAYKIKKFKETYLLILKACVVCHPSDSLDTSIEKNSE
Description: (§1) CHO (Chinese hamster ovary) cells stably expressing the recombinant human ARs were cultured in Dulbecco's modified Eagle medium (DMEM) and F12 (1:1) supplemented with 10% fetal bovine serum, 100 units/mL penicillin, 100 μg/mL streptomycin, and 2 μmol/mL glutamine. After harvesting, cells were homogenized and suspended. Cells were then centrifuged at 500 g for 10 min, and the pellet was resuspended in 50 mM Tris-HCl buffer (pH 7.5) containing 10 mM MgCl2. The suspension was homogenized and was then recentrifuged at 20 000 g for 20 min at 4°C. The resultant pellets were resuspended in Tris buffer, incubated with adenosine deaminase for 30 min at 37°C, and the suspension was stored at -80°C until the binding experiments. The protein concentration was measured using the BCA Protein Assay Kit from Pierce.
(§2) Radioligand binding assays were performed for A1 and A2A ARs, following the procedure described previously. Each tube in the binding assay contained 100 μL of membrane suspension (20 μg of protein), 50 μL of agonist radioligand, and 50 μL of increasing concentrations of the test ligands in Tris-HCl buffer (50 mM, pH 7.5) containing 10 mM MgCl2. The concentration of the dendrimer-ligand complexes are measured by the concentration of the dendrimer, not the ligand. Therefore, all Ki values are measured as Ki app values. Nonspecific binding was determined using a final concentration of 10 μM 5'-N-ethylcarboxamidoadenosine diluted with the buffer. The mixtures were incubated at 25°C for 60 min. Binding reactions were terminated by filtration through Whatman GF/B filters under a reduced pressure using a MT-24 cell harvester (Brandell, Gaithersburg, MD). Filters were washed three times with 5 mL of 50 mM ice-cold Tris-HCl buffer (pH 7.5). […] All of the filters were washed 3 times with Tris-HCl, pH 7.5. Filters for A1 and A2A AR binding were placed in scintillation vials containing 5 mL of Hydrofluor scintillation buffer and counted using a Perkin Elmer Liquid Scintillation Analyzer. Filters for A3 AR binding were counted using a Packard Cobra II γ-counter. The Ki values were determined using GraphPad Prism for all assays.

A3 AR [2] = target: T1, A3 AR; assay: cAMP assay (inhibition of forskolin-stimulated adenylyl cyclase) in CHO cells expressing A3 AR; format: cell-based; settings: for EC50: cAMP inhibition, mean ± SEM, n = 3; for A3 (adenylyl cyclase), class word: relative to total inhibition by ADAC
Description: (§3) CHO cells expressing either the A1 or A3 AR were seeded in 24 well plates and incubated at 37°C overnight. The following day the medium was removed and replaced with DMEM containing 50 mM HEPES, 10 μM rolipram, 3 U/ml adenosine deaminase and increasing concentrations of the compounds. After a 30 min incubation at 37°C, 10 μM of forskolin was added to stimulate cAMP levels, and the cells were incubated at 37°C for an additional 15 min. The medium was removed, and the cells were lysed with 200 μl of 0.1 M HCl. 100 μl of the HCl solution was used in the Sigma Direct cAMP Enzyme Immunoassay following the instructions provided with the kit.

A2A AR = target: T2, A2A AR (Homo sapiens, UniProt P29274); assay: Radioligand binding at A2A AR ([3H]CGS21680, HEK cells)
T2 construct: expressed in transfected cells; host or cells: CHO
T2 sequence (P29274 whole entry): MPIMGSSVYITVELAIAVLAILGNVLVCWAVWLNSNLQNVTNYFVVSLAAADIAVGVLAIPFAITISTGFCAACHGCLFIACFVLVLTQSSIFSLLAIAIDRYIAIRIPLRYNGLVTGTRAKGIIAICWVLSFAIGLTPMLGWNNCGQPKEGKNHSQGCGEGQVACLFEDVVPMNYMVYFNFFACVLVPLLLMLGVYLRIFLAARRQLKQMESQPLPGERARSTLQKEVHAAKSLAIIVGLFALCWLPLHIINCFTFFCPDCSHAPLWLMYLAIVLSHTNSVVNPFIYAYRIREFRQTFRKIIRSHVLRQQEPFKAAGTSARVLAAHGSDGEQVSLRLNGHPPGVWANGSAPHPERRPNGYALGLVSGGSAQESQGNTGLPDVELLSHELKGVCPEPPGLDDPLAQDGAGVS
Description: as §1, §2

A1 AR [3] = target: T3, A1 AR (Homo sapiens, UniProt P30542); assay: Radioligand binding at A1 AR ([3H]CCPA, CHO cell membranes); settings: for Difference in affinity between the human A1 and A3 ARs / Binding at the A1 AR, in words: radioligand binding; for A1 binding, class symbol: inhibition of radioligand binding at 10 μM
T3 sequence (P30542 1-326): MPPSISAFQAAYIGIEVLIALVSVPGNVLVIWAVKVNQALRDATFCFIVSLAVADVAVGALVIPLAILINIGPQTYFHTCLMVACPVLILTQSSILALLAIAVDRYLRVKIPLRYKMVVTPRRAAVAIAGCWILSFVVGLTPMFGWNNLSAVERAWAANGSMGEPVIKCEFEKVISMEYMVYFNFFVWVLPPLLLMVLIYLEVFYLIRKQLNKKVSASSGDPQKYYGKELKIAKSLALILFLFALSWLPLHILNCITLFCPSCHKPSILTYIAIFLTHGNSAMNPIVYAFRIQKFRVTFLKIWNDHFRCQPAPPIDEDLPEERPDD
Description: as §1
Radioligand binding assays were performed for A1 and A2A ARs, following the procedure described previously. Each tube in the binding assay contained 100 μL of membrane suspension (20 μg of protein), 50 μL of agonist radioligand, and 50 μL of increasing concentrations of the test ligands in Tris-HCl buffer (50 mM, pH 7.5) containing 10 mM MgCl2. The concentration of the dendrimer-ligand complexes are measured by the concentration of the dendrimer, not the ligand. Therefore, all Ki values are measured as Ki app values. Nonspecific binding was determined using a final concentration of 10 μM 5'-N-ethylcarboxamidoadenosine diluted with the buffer. The mixtures were incubated at 25°C for 60 min. Binding reactions were terminated by filtration through Whatman GF/B filters under a reduced pressure using a MT-24 cell harvester (Brandell, Gaithersburg, MD). Filters were washed three times with 5 mL of 50 mM ice-cold Tris-HCl buffer (pH 7.5). The radioactive agonists [^3H]2-chloro-N^6-cyclopentyladenosine and [^3H]2-(4-(2-carboxyethyl)phenylethylamino)-5'-N-ethylcarboxamido-adenosine were used for the A1 and A2A assays, respectively. All of the filters were washed 3 times with Tris-HCl, pH 7.5. Filters for A1 and A2A AR binding were placed in scintillation vials containing 5 mL of Hydrofluor scintillation buffer and counted using a Perkin Elmer Liquid Scintillation Analyzer. Filters for A3 AR binding were counted using a Packard Cobra II γ-counter. The Ki values were determined using GraphPad Prism for all assays.

A1 AR [4] = target: T3, A1 AR; assay: [35S]GTPγS binding assay in CHO A1 membranes; format: biochemical; settings: for EC50: mean ± SEM, n = 3
Description: as §1
[^35S]GTPγS binding was measured in 200 μl of buffer containing 50 mM Tris-HCl (pH 7.4), 1 mM EDTA, 1 mM MgCl2, 10 μM GDP, 1 mM dithiothreitol, 100 mM NaCl, 3 units/ml adenosine deaminase, 0.2 nM [^35S]GTPγS, 0.004% CHAPS, 0.5% bovine serum albumin and increasing concentrations of the ligands. Samples were started by addition of the membrane suspension (5–10 μg protein/tube) to the test tubes and incubated at 25°C for 30 min. The assay was terminated by rapid filtration through Whatman GF/B filters, pre-soaked in 50 mM Tris-HCl (pH 7.4) containing 5 mM MgCl2 and 0.02% CHAPS. Non-specific binding of [^35S]GTPγS was measured in the presence of 10 μM unlabelled GTPγS. After the filters were washed, they were placed in scintillation vials containing 5 mL of Hydrofluor scintillation buffer and counted using a Perkin Elmer Liquid Scintillation Analyzer. The EC50 values were determined using GraphPad Prism for all assays.

A1 AR [5] = target: T3, A1 AR; assay: cAMP assay (inhibition of forskolin-stimulated adenylyl cyclase) in CHO cells expressing A1 AR; format: cell-based; settings: for EC50: cAMP inhibition, mean ± SEM, n = 3; for A1 (adenylyl cyclase), class word: at 10 μM, relative to total inhibition by ADAC
Description: as §3

[6] = system: ten-min bilateral cerebrovascular occlusion; settings: cited from earlier work
CHO A3 cells = assay: Light and fluorescent microscopy of CHO A3 cells; format: cell-based, Chinese hamster; settings: 10 μM, 1 h, one wash with PBS, CHO cells stably expressing the A3 AR
Description: (§4) After one wash with PBS, the cells were imaged at 100× magnification on a Zeiss AxioVision D1 Imager, and both light and fluorescent pictures were obtained.
(§5) CHO or CHO A3 cells were seeded on a cover disk in a 6 well dish (250,000 cells per well). After the cells were incubated for 24 hrs at 37°C, the medium was removed and replaced with DMEM containing 10 μM of the 15 or 17. The cells were incubated for 1 h at 37°C and washed one time with PBS. The images were taken with at 100× manification using a Zeiss AxioVision D1 Imager equipped with AxioVision 4.5 software.

CHO cells = assay: Light and fluorescent microscopy of CHO cells not expressing the A3 AR; format: cell-based, Chinese hamster; settings: 10 μM, 1 h, one wash with PBS
Description: as §4, §5

[7] = inhibition of radioligand binding at 10 μM

## NCCNC(=O)Cc1ccc(NC(=O)Cc2ccc(Nc3ncnc4c3ncn4[C@@H]3O[C@H](CO)[C@@H](O)[C@H]3O)cc2)cc1 [Compound 1, N^6-[4-[[[4-[[[(2-aminoethyl)amino]carbonyl]methyl]anilino]-carbonyl]methyl]phenyl]adenosine, reference compound]
A3 AR [1]
  Ki: 12.2 ± 4.1 nM
A3 AR [2]
  EC50: 100 ± 50 nM
A2A AR
  Ki: 370 ± 100 nM
A1 AR [3]
  Ki: 10.4 ± 3.8 nM
  Difference in affinity between the human A1 and A3 ARs: < 5 fold
A1 AR [4]
  EC50: 94 ± 26 nM
A1 AR [5]
  EC50: 400 ± 80 nM
[6]; acute or chronic administration prior to occlusion
  Protection against neuronal damage and mortality: protects against neuronal damage and mortality
[6]; given up to twelve hours post-ischemia
  Neuronal protection post-ischemia: provides neuronal protection

## O=C(O)CCc1ccc(NC(=S)NCCNC(=O)Cc2ccc(NC(=O)Cc3ccc(Nc4ncnc5c4ncn5[C@@H]4O[C@H](CO)[C@@H](O)[C@H]4O)cc3)cc2)cc1 [Compound 4, 3-(4-(3-(2-(2-(4-(2-(4-(9-((2R,3R,4S,5R)-3,4-Dihydroxy-5-(hydroxymethyl)tetrahydrofuran-2-yl)-9H-purin-6-ylamino)phenyl)acetamido)-phenyl)acetamido)ethyl)thioureido)phenyl)pro-panoic acid]
A3 AR [1]
  Ki: 74 ± 20 nM
A3 AR [2]
  EC50: 140 ± 70 nM
A2A AR
  Ki: 800 ± 360 nM
A1 AR [3]
  Ki: 30 ± 9 nM
  Difference in affinity between the human A1 and A3 ARs: < 5 fold
A1 AR [4]
  EC50: 1300 ± 400 nM
A1 AR [5]
  EC50: 350 ± 20 nM

## NCCNCCNC(=O)Cc1ccc(NC(=O)Cc2ccc(Nc3ncnc4c3ncn4[C@@H]3O[C@H](CO)[C@@H](O)[C@H]3O)cc2)cc1 [Compound 7, N-(2-(2-Aminoethylamino)ethyl)-2-(4-(2-(4-(9-((2R,3R,4S,5R)-3,4-dihydroxy-5-(hydroxymethyl)-tetrahydrofuran-2-yl)-9H-purin-6-ylamino)-phenyl)acetamido)phenyl)acetamide]
A3 AR [1]
  Ki: 9.5 ± 2 nM
A3 AR [2]; A3 AR
  Fold more potent than either ADAC or 4 in adenylyl cyclase assay: 3 – 7 fold
A3 AR [2]
  EC50: 36 ± 13 nM
A2A AR
  Ki: 300 ± 20 nM
A1 AR [3]
  Ki: 43 ± 5 nM
  Difference in affinity between the human A1 and A3 ARs: < 5 fold
A1 AR [4]
  Fold more potent than 4 in activation of GTPγS binding via the A1 AR: 20 fold
  EC50: 63 ± 14 nM
A1 AR [5]; A1 AR
  Fold more potent than either ADAC or 4 in adenylyl cyclase assay: 3 – 7 fold
A1 AR [5]
  EC50: 89 ± 17 nM

## G2.5 PAMAM – AF488 [Compound 15]
A3 AR [1]; [7]
  A3 binding, class symbol: NB^b (NB, No binding. Inhibition of radioligand binding < 10% at 10 μM)
A3 AR [2]; at 10 μM
  A3 (adenylyl cyclase), class word: inactive^c
A2A AR; [7]
  A2A binding, class symbol: NB^b (NB, No binding. Inhibition of radioligand binding < 10% at 10 μM)
CHO A3 cells
  Fluorescent binding to cells: Neither type of CHO cells were bound
CHO cells
  Fluorescent binding to cells: Neither type of CHO cells were bound
A1 AR [3]
  A1 binding, class symbol: NB^b (NB, No binding. Inhibition of radioligand binding < 10% at 10 μM)
  Binding at the A1 AR, in words: no binding
A1 AR [5]
  Inhibition of cAMP production at the A1 AR, in words: no binding or activity
  A1 (adenylyl cyclase), class word: inactive^c

## G3 PAMAM – 23 Ac – AF488 [Compound 11]
A3 AR [2]; at 10 μM
  Inhibition of cAMP production at the A3 AR, in words: unable to significantly inhibit cAMP production
  A3 (adenylyl cyclase), class word: inactive^c
A1 AR [3]
  A1 binding, class symbol: NB^b (NB, No binding. Inhibition of radioligand binding < 10% at 10 μM)
  Binding at the A1 AR, in words: no binding
A1 AR [5]
  Inhibition of cAMP production at the A1 AR, in words: unable to significantly inhibit cAMP production
  A1 (adenylyl cyclase), class word: inactive^c
